Results from ChEMBL document CHEMBL6178023 (J Med Chem, 2025).
Values after ≈ are worked out from the molar mass of the structure shown. Active and inactive are the calls of the source. The rule behind the calls is not given here.

Tests used:
Chikungunya virus [1] = experiment: Antiviral activity against CHIKV 181/25 expressing nLuc-capsid gene infected in human MRC5 cells assessed as reduction in viral replication preincubated with cells for 1 hr followed by viral infection measured after 6 hrs post-infection by Nano-glo luciferase assay; type: functional, organism-based; settings: 181/25, MRC5, read-out: pEC50 (converted)
Polyprotein P1234 [2] = molecular target: T1, Polyprotein P1234 (Chikungunya virus (strain S27-African prototype) (CHIKV), UniProt Q8JUX6); experiment: Inhibition of N-terminal 6-His/SUMO-tagged CHIKV 181/25 nsP2 extracted from Escherichia coli Rosetta 2 preincubated for 30 mins followed by ATP addition measured after 1 hr by ADP-Glo assay
T1 sequence (Q8JUX6 536-1333 limits assumed): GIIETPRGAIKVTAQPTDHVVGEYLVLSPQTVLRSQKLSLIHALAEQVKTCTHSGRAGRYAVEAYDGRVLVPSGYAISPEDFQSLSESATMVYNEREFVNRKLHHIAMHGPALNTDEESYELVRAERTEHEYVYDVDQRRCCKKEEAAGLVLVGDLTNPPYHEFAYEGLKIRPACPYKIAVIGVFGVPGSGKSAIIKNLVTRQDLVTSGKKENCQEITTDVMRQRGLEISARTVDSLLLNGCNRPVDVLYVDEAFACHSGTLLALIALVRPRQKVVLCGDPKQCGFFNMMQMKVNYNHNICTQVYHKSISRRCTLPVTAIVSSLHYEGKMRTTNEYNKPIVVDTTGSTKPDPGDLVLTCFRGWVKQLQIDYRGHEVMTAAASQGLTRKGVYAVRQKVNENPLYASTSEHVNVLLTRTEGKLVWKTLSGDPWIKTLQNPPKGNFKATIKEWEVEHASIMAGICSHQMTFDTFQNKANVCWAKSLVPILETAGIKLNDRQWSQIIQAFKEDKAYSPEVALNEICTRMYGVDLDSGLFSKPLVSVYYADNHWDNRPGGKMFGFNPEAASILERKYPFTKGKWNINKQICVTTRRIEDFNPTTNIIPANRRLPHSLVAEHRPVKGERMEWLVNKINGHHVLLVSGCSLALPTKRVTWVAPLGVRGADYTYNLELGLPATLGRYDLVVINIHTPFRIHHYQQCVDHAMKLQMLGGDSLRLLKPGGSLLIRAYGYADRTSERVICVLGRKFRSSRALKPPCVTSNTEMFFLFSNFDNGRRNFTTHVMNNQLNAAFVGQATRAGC

Chikungunya virus [3] = experiment: Inhibition of N-terminal 6-His/SUMO-tagged CHIKV 181/25 nsP2 extracted from Escherichia coli Rosetta 2 at 200 uM preincubated for 30 mins followed by ATP addition measured after 1 hr by ADP-Glo assay relative to control; settings: time 90.0 min
[4] = Aqueous solubility of compound; type: physicochemical; settings: buffer
MRC5 = experiment: Cytotoxicity against human MRC5 cells at 10 to 40 uM by Cell Titer Glo assay; type: toxicity, cell-based; settings: mrc5, 40 µM, dose 10-40 µM
[5] = Selectivity ratio of pEC50 for antiviral activity against VEEV expressing nLuc to pEC50 for antiviral activity against CHIKV 181/25 expressing nLuc-capsid gene infected in human MRC5 cells; type: functional
[6] = Aqueous solubility of compound in PBS at pH 7.4; type: physicochemical
Chikungunya virus [7] = experiment: (§1) Anti-viral activity against CHIKV infected in human NHDF cells assessed as reduction in viral titer incubated with cells for 1 hr followed by viral infection for 2 hrs and subsequent replacement of fresh media with compound measured after 24 hrs post-infection by extracting viral supernatant from cells and transferring supernatant to African geen monkey Vero cells for measuring plaque formation; type: functional, organism-based; settings: dose 0.01-100 µM, time 25.0 hrs
Mayaro virus [8] = experiment: as §1, with “MAYV” for “CHIKV”; type: functional, organism-based; settings: dose 0.01-100 µM, time 25.0 hrs
Mayaro virus [9] = experiment: as §1, with “activity against MAYV infected in” for “activity against CHIKV infected in”, “assessed as log reduction in” for “assessed as reduction in”, “viral titer at 0.01 to 100 uM incubated with” for “viral titer incubated with”; type: functional; settings: dose 0.01-100 µM; time 25 hrs
[10] = molecular target: Polyprotein P1234 (Chikungunya virus (strain S27-African prototype) (CHIKV)) (UniProt Q8JUX6); experiment: Inhibition of N-terminal 6-His/SUMO-tagged CHIKV 181/25 nsP2 extracted from Escherichia coli Rosetta 2 assessed as decrease in nsP2 ATPase activity up to 100 uM measured for 5 to 10 mins in presence of [alpha-32P]-ATP by TLC method; settings: time 5-10 min
Target sequence in this assay (Q8JUX6 whole entry): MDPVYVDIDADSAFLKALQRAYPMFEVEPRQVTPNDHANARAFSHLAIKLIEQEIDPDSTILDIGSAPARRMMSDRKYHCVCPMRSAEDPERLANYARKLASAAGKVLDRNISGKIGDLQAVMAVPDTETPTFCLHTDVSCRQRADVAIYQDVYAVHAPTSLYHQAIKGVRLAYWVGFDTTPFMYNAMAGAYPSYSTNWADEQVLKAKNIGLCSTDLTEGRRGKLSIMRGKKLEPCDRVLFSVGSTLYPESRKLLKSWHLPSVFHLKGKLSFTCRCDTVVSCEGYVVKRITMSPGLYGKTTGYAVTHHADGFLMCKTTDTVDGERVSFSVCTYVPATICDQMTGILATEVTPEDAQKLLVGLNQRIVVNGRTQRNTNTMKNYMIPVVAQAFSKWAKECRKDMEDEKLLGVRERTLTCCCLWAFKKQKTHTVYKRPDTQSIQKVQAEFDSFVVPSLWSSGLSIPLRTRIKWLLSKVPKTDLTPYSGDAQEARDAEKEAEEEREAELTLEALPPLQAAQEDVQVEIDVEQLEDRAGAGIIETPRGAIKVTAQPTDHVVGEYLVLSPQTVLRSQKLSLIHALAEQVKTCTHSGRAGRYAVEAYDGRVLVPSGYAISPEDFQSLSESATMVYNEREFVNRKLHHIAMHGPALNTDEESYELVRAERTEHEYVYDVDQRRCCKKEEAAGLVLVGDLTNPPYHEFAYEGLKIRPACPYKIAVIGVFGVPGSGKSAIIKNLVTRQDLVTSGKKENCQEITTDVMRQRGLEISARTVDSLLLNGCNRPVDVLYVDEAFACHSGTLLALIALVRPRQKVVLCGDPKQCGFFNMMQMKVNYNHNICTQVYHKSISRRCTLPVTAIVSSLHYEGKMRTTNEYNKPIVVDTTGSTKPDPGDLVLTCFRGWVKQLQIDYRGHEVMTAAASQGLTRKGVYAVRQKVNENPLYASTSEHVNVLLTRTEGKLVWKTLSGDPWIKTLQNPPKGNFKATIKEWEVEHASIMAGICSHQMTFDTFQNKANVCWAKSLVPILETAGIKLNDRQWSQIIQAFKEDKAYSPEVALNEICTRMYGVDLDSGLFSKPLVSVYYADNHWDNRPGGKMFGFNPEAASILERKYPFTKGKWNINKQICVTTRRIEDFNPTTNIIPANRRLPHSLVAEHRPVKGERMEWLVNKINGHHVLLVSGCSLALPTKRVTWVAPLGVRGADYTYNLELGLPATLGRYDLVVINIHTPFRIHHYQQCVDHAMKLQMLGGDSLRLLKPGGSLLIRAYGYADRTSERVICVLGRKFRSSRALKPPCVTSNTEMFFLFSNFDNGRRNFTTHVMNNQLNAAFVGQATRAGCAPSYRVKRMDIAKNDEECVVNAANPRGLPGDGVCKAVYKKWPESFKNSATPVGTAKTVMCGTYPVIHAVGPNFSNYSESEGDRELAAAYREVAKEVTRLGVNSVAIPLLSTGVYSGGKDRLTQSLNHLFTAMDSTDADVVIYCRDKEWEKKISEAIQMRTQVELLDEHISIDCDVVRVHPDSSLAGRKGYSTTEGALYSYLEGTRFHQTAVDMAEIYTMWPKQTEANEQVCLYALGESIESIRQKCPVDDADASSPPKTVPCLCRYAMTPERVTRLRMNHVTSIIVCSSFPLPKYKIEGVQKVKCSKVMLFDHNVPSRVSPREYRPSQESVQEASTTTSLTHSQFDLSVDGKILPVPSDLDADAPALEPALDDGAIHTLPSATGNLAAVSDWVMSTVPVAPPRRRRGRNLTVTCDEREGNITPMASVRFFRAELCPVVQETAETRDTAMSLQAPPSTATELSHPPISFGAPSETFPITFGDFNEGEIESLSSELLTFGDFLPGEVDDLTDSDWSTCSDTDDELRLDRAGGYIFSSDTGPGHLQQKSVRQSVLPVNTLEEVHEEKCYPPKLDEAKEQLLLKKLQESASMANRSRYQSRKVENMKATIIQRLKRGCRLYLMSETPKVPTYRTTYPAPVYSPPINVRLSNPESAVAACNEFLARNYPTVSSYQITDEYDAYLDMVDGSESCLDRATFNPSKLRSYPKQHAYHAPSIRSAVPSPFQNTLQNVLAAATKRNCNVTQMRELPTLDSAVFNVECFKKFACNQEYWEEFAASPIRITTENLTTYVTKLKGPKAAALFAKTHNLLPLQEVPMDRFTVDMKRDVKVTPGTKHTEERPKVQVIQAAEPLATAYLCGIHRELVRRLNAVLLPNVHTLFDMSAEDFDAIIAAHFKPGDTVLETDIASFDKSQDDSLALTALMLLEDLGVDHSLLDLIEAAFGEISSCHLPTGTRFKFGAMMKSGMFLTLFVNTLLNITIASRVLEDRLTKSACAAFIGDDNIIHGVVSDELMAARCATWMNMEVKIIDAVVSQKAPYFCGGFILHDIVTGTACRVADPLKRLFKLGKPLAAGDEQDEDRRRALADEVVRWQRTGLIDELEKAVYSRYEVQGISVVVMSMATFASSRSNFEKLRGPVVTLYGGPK

[11] = molecular target: Polyprotein P1234 (Chikungunya virus (strain S27-African prototype) (CHIKV)) (UniProt Q8JUX6); experiment: Binding affinity to N-terminal 6-His/SUMO-tagged CHIKV 181/25 nsP2 extracted from Escherichia coli Rosetta 2 assessed as decrease in Vmax up to 2.5 uM in presence of [alpha-32P]-ATP by TLC method
Target sequence in this assay (Q8JUX6 whole entry): as above

[12] = molecular target: Polyprotein P1234 (Chikungunya virus (strain S27-African prototype) (CHIKV)) (UniProt Q8JUX6); experiment: Binding affinity to N-terminal 6-His/SUMO-tagged CHIKV 181/25 nsP2 extracted from Escherichia coli Rosetta 2 assessed as unchanged Km up to 2.5 uM in presence of [alpha-32P]-ATP by TLC method
Target sequence in this assay (Q8JUX6 whole entry): as above

[13] = molecular target: Polyprotein P1234 (Chikungunya virus (strain S27-African prototype) (CHIKV)) (UniProt Q8JUX6); experiment: (§2) Inhibition of N-terminal 6-His/SUMO-tagged CHIKV 181/25 nsP2 extracted from Escherichia coli Rosetta 2 assessed as decrease in nsP2 helicase activity in presence of RNA duplex composed of 39mer loading RNA strand/19mer displaced RNA strand by gel electrophoresis; settings: dose 0.01-100 µM
Target sequence in this assay (Q8JUX6 536-1333 limits assumed): as the sequence (Q8JUX6 536-1333 limits assumed) above

Polyprotein P1234 [14] = molecular target: T1, Polyprotein P1234; experiment: as §2
[15] = molecular target: Polyprotein P1234 (Chikungunya virus (strain S27-African prototype) (CHIKV)) (UniProt Q8JUX6); experiment: Binding affinity to N-terminal 6-His/SUMO-tagged CHIKV 181/25 nsP2 extracted from Escherichia coli Rosetta 2 using fluorescein-labeled dsRNA template incubated for 30 mins by fluorescence polarization assay
Target sequence in this assay (Q8JUX6 whole entry): as the sequence (Q8JUX6 whole entry) above

With Cc1ccnc(OC2CCOC3(CCN(C(=O)C4(c5ccccc5)CCCC4)CC3)C2)c1 (stereo not given) the EC50 (Chikungunya virus [1]) was 12600 nM, the IC50 (Polyprotein P1234 [2]) was greater than 39800 nM and the inhibition (Chikungunya virus [3]) was 40%. For the same molecule, the solubility [4] was 14 µM (≈ 6.08 µg/mL), the Activity (MRC5) was “Non-toxic” and the Ratio [5] was 10.

For CS(=O)(=O)NCC1CCOC2(CCN(C(=O)C3(c4ccccc4)CCCC3)CC2)C1 (stereo not given), the EC50 (Chikungunya virus [1]) was 3160 nM, the IC50 (Polyprotein P1234 [2]) was greater than 39800 nM and the inhibition (Chikungunya virus [3]) was 40%. The solubility [4] was 240 µM (≈ 104 µg/mL), the Activity (MRC5) was “Non-toxic” and the Ratio [5] was 10.

With O=C(N1CCC2(CC1)CC(CN1CCCCS1(=O)=O)CCO2)C1(c2ccccc2)CCCC1 (stereo not given) the EC50 (Chikungunya virus [1]) was 126 nM, the IC50 (Polyprotein P1234 [2]) was 501 nM and the solubility kinetic [6] was greater than 220 µM. For the same molecule, the Activity (MRC5) was “Non-toxic”, the Activity (Chikungunya virus [7]) was “Dose-dependent-effect” and the Activity (Mayaro virus [8]) was “Dose-dependent-effect”. For the same molecule, the Activity (Mayaro virus [9]) was 0.01 10^5No_unit, the inhibition [10] was “Active; Ic50 Of Compound Was Same At Both # And # Mins” and the Activity [11] was “Active”. The Activity [12] was “Active”, the inhibition [13] was “Dose-dependent-effect” and the IC50 (Polyprotein P1234 [14]) was 900 nM. The Activity [15] was “Active; Compound Did Not Involve Direct Displacement Of Rna Substrate Suggesting Allosteric Mechanism Of Helicase Inhibition”.
